# Measurements: patent publication US12570612B2, “Substituted nitrogen heterocyclic compound and anesthetic effect thereof” (priority 2019, dated 2026)
# Read-outs that look alike come from different tables or passages of the source.
# Columns and labels:
# adrenal cortex function [1] = assay: Adrenocortical function in rats: corticosterone after dexamethasone and ACTH, Group C compounds; conditions: for Give ACTH 30min later(S2) corticosterone concentration: drug at 2ED50, 30 min after ACTH 25 ug/kg; for Baseline(S1) corticosterone concentration: two hours after dexamethasone 0.5 mg/kg, before drug
# Procedure: (§1) Instruments and equipment: multi-function ion meter (METTLER TOLEDO, models: SevenMulti), pipetting gun (Eppendorf, specifications: 1000 ul, 200 ul, 100 ul, 10 ul), electronic balance (model: ME215S, manufacturers: Sartorius, Germany), the timer. Experimental Method: Adult male Sprague-Dawley rats (250-300 g) were selected for the experiment (n=8), all the experiment were started in the morning. Place indwelling needles in tail vein of rats and inject dexamethasone (0.5 mg/kg). The first time of blood collection (S1) is in two hours later, and give dexamethasone (0.2 mg/kg). […] All the drugs were administered in a volume of 0.6 ml and at a rate of 0.1 ml/s. 15 min later, exogenous ACTH (25 ug/kg) was injected. Another blood sample was collected after 30 min(S2). The blood samples were left standing at room temperature for 30-60 min, followed by centrifugation at 3500 rpm for 10 min. The supernatant was taken and centrifuged again at 15000 rpm for 5 min before being frozen and stored in a −20° C. refrigerator.
# (§2) Evaluation indexes: The concentration of the corticosterone in the supernatant of rats before and after given drugs.
# Sprague-Dawley rats [2] = assay: Pharmacological effect and adverse reactions under the equivalent dose (2ED50), Group C compounds; format: in vivo; conditions: for Righting reflex duration / Sedation duration / Onset time: 2ED50, tail vein, rats, n=8; for Onset time: unit s; for Adverse reaction: Convulsions / Adverse reaction: Cough, broken-winded / Adverse reaction: Euphoria / Adverse reaction: Red urine / Adverse reaction: Slower breathing, Tetany convulsion / Adverse reaction: Systemic stiffness, Convulsions, Opisthotonus / Adverse reaction: Tongue stretching / Adverse reaction: Tremor / Adverse reaction: the four limbs rigidity: equivalent dose (2ED50), number of rats of n = 8
# Description: (§3) Evaluation index: onset time: from the completion of drug injection to the disappearance of forepaw righting reflex in rats; Duration of anesthesia: the time from the disappearance of rat forepaw righting reflex to the recovery of rat forepaw righting reflex; Recovery time of anesthesia: the time from the […] to complete recovery;
# SD rats [3] = conditions: for After the infusion is stopped: Righting reflex recovery time / Recovery time after stopping infusion: after 1 hour continuous infusion at 2 times the MIR; for After the infusion is stopped: Righting reflex recovery time / Recovery time after stopping infusion / Sedation onset time: SD rats; for Sedation onset time: continuous tail vein infusion at 2 times the MIR
# Procedure: (§4) Experimental Methods: Adult male SD rats with body weight ranging from 250 g to 350 g were selected for continuous infusion test.
# (§5) Evaluation indexes: the time from the beginning of continuous infusion to the […] of sedation in rats; the time from the cessation of infusion to the restoration of the forepaw turning reflex after 1 hour of continuous infusion; the time from the cessation of infusion to the complete restoration of rats after 1 hour of continuous infusion.
# Sprague-Dawley rats [4] = format: in vivo; conditions: tail vein
# Sprague-Dawley rats [5] = assay: animal or person; format: in vivo; conditions: rats; for ED50: LORR, up and down method, tail vein, class symbols
# Description: (§6) Evaluating indicator: The end point of anesthesia: LORR was used as the end point of anesthesia; General anesthesia effect: the disappearance of forepaw righting reflex in rats lasting for 30 seconds is taken as the index of general anesthesia effect; Anesthesia recovery index: the recovery of rat forepaw righting reflex was used as the index of anesthesia recovery.
# Sprague-Dawley rats [6] = format: in vivo; conditions: tail vein; remark: listed apart in the source
# Sprague-Dawley rats [7] = assay: animal or person; format: in vivo; conditions: rats
# Description: as §6, with “the disappearance of forepaw righting reflex (lorr)” for “LORR”
# adrenal cortex function [8] = assay: Adrenocortical function in rats: corticosterone after dexamethasone and ACTH, Group D compounds; conditions: for Baseline(S1) corticosterone concentration: before drug
# Procedure: as §1, with “Equipment:” for “equipment:”, “min (S2).” for “min(S2).”
# as §2
# SD rats [9] = system: SD rats
# Procedure: as §4, §5
# Sprague-Dawley rats [10] = assay: Pharmacological effect and adverse reactions under the equivalent dose (2ED50), Group D compounds; format: in vivo
# Description: as §3
# [11] = continuous infusion 2 x MIR 1 hour, rats affected/rats
# [12] = after 1 hour continuous infusion at 2 times the MIR, SD rats
# [13] = equivalent dose (2 × ED50), number of rats of n = 8
smiles,measurement,setting,value
CCOCC(=O)c1ccnn1[C@H](C)c1ccccc1 [Compound C2],Give ACTH 30min later(S2) corticosterone concentration,adrenal cortex function [1],242.12 ± 46.22
same,Baseline(S1) corticosterone concentration,adrenal cortex function [1],163.22 ± 35.11
same,Righting reflex duration,Sprague-Dawley rats [2],1.78 ± 0.53 min
same,Sedation duration,Sprague-Dawley rats [2],5.38 ± 0.78 min
same,Onset time,Sprague-Dawley rats [2],<30 s
same,Adverse reaction: Convulsions,Sprague-Dawley rats [2],0
same,"Adverse reaction: Cough, broken-winded",Sprague-Dawley rats [2],0
same,Adverse reaction: Euphoria,Sprague-Dawley rats [2],0
same,Adverse reaction: Red urine,Sprague-Dawley rats [2],8
same,"Adverse reaction: Slower breathing, Tetany convulsion",Sprague-Dawley rats [2],0
same,"Adverse reaction: Systemic stiffness, Convulsions, Opisthotonus",Sprague-Dawley rats [2],0
same,Adverse reaction: Tongue stretching,Sprague-Dawley rats [2],2
same,Adverse reaction: Tremor,Sprague-Dawley rats [2],0
same,Adverse reaction: the four limbs rigidity,Sprague-Dawley rats [2],0
same,After the infusion is stopped: Righting reflex recovery time,SD rats [3],10 to 15 min
same,Recovery time after stopping infusion,SD rats [3],20 to 30 min
same,Types and incidence of adverse reactions: Red urine,SD rats [3]; [11],6/6
same,Types and incidence of adverse reactions: Tongue stretching,SD rats [3]; [11],Tongue stretching(4/6)
same,Types and incidence of adverse reactions: Tremor,SD rats [3]; [11],3/6
same,Sedation onset time,SD rats [3],<5 min
same,Minimal lethal dose,Sprague-Dawley rats [4],>12.4 mg/kg
same,ED50,Sprague-Dawley rats [5],"++++ (++++ indicates that the measured ED50 is in the range of 2.00-10.00 mg/kg (excluding 2.00 mg/kg, including 6.00 mg/kg))"
same,Approximate therapeutic index,Sprague-Dawley rats [5],>2.5
CC#CCOCC(=O)c1cncn1[C@H](C)c1ccccc1 [Compound C27],Give ACTH 30min later(S2) corticosterone concentration,adrenal cortex function [1],253.11 ± 34.56
same,Baseline(S1) corticosterone concentration,adrenal cortex function [1],180.33 ± 46.70
same,Righting reflex duration,Sprague-Dawley rats [2],1.48 ± 0.14 min
same,Sedation duration,Sprague-Dawley rats [2],4.39 ± 0.94 min
same,Onset time,Sprague-Dawley rats [2],<30 s
same,Adverse reaction: Convulsions,Sprague-Dawley rats [2],0
same,"Adverse reaction: Cough, broken-winded",Sprague-Dawley rats [2],0
same,Adverse reaction: Euphoria,Sprague-Dawley rats [2],0
same,Adverse reaction: Red urine,Sprague-Dawley rats [2],8
same,"Adverse reaction: Slower breathing, Tetany convulsion",Sprague-Dawley rats [2],0
same,"Adverse reaction: Systemic stiffness, Convulsions, Opisthotonus",Sprague-Dawley rats [2],1
same,Adverse reaction: Tongue stretching,Sprague-Dawley rats [2],2
same,Adverse reaction: Tremor,Sprague-Dawley rats [2],0
same,Adverse reaction: the four limbs rigidity,Sprague-Dawley rats [2],0
same,After the infusion is stopped: Righting reflex recovery time,SD rats [3],12 to 16 min
same,Recovery time after stopping infusion,SD rats [3],15 to 20 min
same,Types and incidence of adverse reactions: Red urine,SD rats [3]; [11],6/6
same,Types and incidence of adverse reactions: Tremor,SD rats [3]; [11],5/6
same,Sedation onset time,SD rats [3],<5 min
same,Minimal lethal dose,Sprague-Dawley rats [4],>13.6 mg/kg
same,ED50,Sprague-Dawley rats [5],"++ (++ means that the measured ED50 is in the range of 0.50-1.00 mg/kg (excluding 0.50 mg/kg, including 1.00 mg/kg))"
same,Approximate therapeutic index,Sprague-Dawley rats [5],>16.6
CCOC(OCC)(OCC)C(=O)c1cncn1[C@H](C)c1ccccc1 [Compound D76],Minimal lethal dose,Sprague-Dawley rats [6],>11.5 mg/kg
same,ED50,"Sprague-Dawley rats [7]; LORR, up and down method, tail vein, class symbols","++ (++ indicates that the measured ED50 is in the range of 0.50-1.00 mg/kg (excluding 0.50 mg/kg, including 1.00 mg/kg))"
same,Approximate therapeutic index,Sprague-Dawley rats [7],>31.8
same,Baseline(S1) corticosterone concentration,adrenal cortex function [8]; Table 17 printed a second time,153.23 ± 30.91
same,Give ACTH 30min later(S2) corticosterone concentration,"adrenal cortex function [8]; drug at 2ED50, 30 min after ACTH 25 ug/kg",277.88 ± 34.56
same,Give ACTH 30min later(S2) corticosterone concentration,"adrenal cortex function [8]; drug at 2ED50, 30 min after ACTH, Table 17 printed a second time",277.88 ± 34.56
same,Baseline(S1) corticosterone concentration,adrenal cortex function [8]; two hours after dexamethasone 0.5 mg/kg,153.23 ± 30.91
same,After the infusion is stopped: Righting reflex recovery time,SD rats [9]; [12],15 to 25 min
same,Recovery time after stopping infusion,SD rats [9]; [12],25 to 40 min
same,Types and incidence of adverse reactions: Hindlimb rigidity,SD rats [9]; [11],rigidity(2/6)
same,Types and incidence of adverse reactions: Red urine,SD rats [9]; [11],"Red urine(6/6), Hindlimb"
same,Sedation onset time,"SD rats [9]; continuous tail vein infusion at 2 times the MIR, SD rats",<5 min
same,Righting reflex duration,"Sprague-Dawley rats [10]; 2ED50, tail vein, rats, n=8",1.67 ± 1.32 min
same,Sedation duration,"Sprague-Dawley rats [10]; 2ED50, tail vein, rats, n=8",6.44 ± 1.82 min
same,Onset time,"Sprague-Dawley rats [10]; 2ED50, tail vein, rats, n=8, unit min",<1 min
same,Adverse reaction: Convulsions,Sprague-Dawley rats [10]; [13],0
same,"Adverse reaction: Cough, broken-winded",Sprague-Dawley rats [10]; [13],0
same,Adverse reaction: Euphoria,Sprague-Dawley rats [10]; [13],0
same,Adverse reaction: Four limbs rigidity,Sprague-Dawley rats [10]; [13],2
same,Adverse reaction: Red urine,Sprague-Dawley rats [10]; [13],8
same,"Adverse reaction: Slower breathing, Tetany convulsion",Sprague-Dawley rats [10]; [13],0
same,"Adverse reaction: Systemic stiffness, Convulsions, Opisthotonus",Sprague-Dawley rats [10]; [13],8
same,Adverse reaction: Tongue stretching,Sprague-Dawley rats [10]; [13],0
same,Adverse reaction: Tremor,Sprague-Dawley rats [10]; [13],0
C#CCOCC(=O)c1cc(F)nn1[C@H](C)c1ccccc1 [Compound C15],Give ACTH 30min later(S2) corticosterone concentration,adrenal cortex function [1],267.99 ± 33.20
same,Baseline(S1) corticosterone concentration,adrenal cortex function [1],145.90 ± 54.33
same,Righting reflex duration,Sprague-Dawley rats [2],2.13 ± 0.59 min
same,Sedation duration,Sprague-Dawley rats [2],5.3 ± 0.92 min
same,Onset time,Sprague-Dawley rats [2],<30 s
same,Adverse reaction: Convulsions,Sprague-Dawley rats [2],0
same,"Adverse reaction: Cough, broken-winded",Sprague-Dawley rats [2],0
same,Adverse reaction: Euphoria,Sprague-Dawley rats [2],0
same,Adverse reaction: Red urine,Sprague-Dawley rats [2],8
same,"Adverse reaction: Slower breathing, Tetany convulsion",Sprague-Dawley rats [2],0
same,"Adverse reaction: Systemic stiffness, Convulsions, Opisthotonus",Sprague-Dawley rats [2],0
same,Adverse reaction: Tongue stretching,Sprague-Dawley rats [2],0
same,Adverse reaction: Tremor,Sprague-Dawley rats [2],1
same,Adverse reaction: the four limbs rigidity,Sprague-Dawley rats [2],0
same,After the infusion is stopped: Righting reflex recovery time,SD rats [3],16 to 18 min
same,Recovery time after stopping infusion,SD rats [3],30 to 36 min
same,Types and incidence of adverse reactions: Red urine,SD rats [3]; [11],6/6
same,Types and incidence of adverse reactions: Tremor,SD rats [3]; [11],1/6
same,Sedation onset time,SD rats [3],<5 min
same,Minimal lethal dose,Sprague-Dawley rats [4],>16.8 mg/kg
same,ED50,Sprague-Dawley rats [5],"++++ (++++ indicates that the measured ED50 is in the range of 2.00-10.00 mg/kg (excluding 2.00 mg/kg, including 6.00 mg/kg))"
same,Approximate therapeutic index,Sprague-Dawley rats [5],>3.4
